Assay results taken from patent publication US10961246B2, “18F-labelled folates as PET radiotracers” (MERCK & CIE, priority 2008, dated 2021).

Key:
[1] = target: T1, folate receptor (Homo sapiens, UniProt P15328); assay: Ex vivo biodistribution study in mice bearing KB tumor xenografts, control vs folic acid blockade; design: species or system male NMRI nu/nu mice; conditions: ~2 MBq radiotracer; blockade group 200 μg natural folic acid 10 min prior; sacrificed 105 min post injection; KB tumor
T1 construct: endogenous in cells; host or cells: KB tumor xenografts in male NMRI nu/nu mice
Description: (§1) γ-[^18F]fluoro-folic acid was applied in ex vivo biodistribution studies using male NMRI nu/nu mice bearing KB tumor xenografts. ˜2 MBq of the radiotracer were injected into each animal. In a blockade group, 200 μg natural folic acid was injected 10 min prior to the radiotracer. The animals were sacrificed 105 min post injection.

[2] = system: folate receptor; assay: as above; design: species or system male NMRI nu/nu mice
Description: as §1

[3] = target: T1, folate receptor; type: in vivo, male NMRI nu/nu mice; conditions: blockade 200 μg natural folic acid 10 min prior; scans 75-105 min post injection
Description: (§2) In vivo PET imaging using the γ-[^18F]fluoro-folic acid was performed in male NMRI nu/nu mice bearing KB tumor xenografts. Ca. 10 MBq of the radiotracer were injected into each animal. In the blockade group, 200 μg natural folic acid was injected 10 min prior to the radiotracer. The PET scans were acquired from 75 min to 105 min post injection.
(§3) This pattern is consistent with the physiological distribution of the folate receptor and points out the high specificity of γ-[^18F]fluoro-folic acid.
(§4) FIG. 3 show representative series of normalized horizontal slices of whole body PET scans using γ-[^18F]fluoro-folic acid under control and blockade conditions. Arrows with circles indicate the tumor site and arrows with squares indicate the kidneys.

[4] = system: folate receptor; type: in vivo, male NMRI nu/nu mice; conditions: ca. 10 MBq; scans 75-105 min post injection
Description: as §2, §3, §4

T1 sequence (P15328 25-234 limits assumed): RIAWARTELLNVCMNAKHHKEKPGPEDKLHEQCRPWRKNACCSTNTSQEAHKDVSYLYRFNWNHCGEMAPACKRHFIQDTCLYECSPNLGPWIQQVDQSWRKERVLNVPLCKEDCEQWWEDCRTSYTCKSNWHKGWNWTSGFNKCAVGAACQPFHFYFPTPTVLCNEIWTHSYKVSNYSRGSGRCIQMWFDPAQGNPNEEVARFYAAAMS

## Nc1nc2ncc(CNc3ccc(C(=O)N[C@@H](CC([18F])C(=O)O)C(=O)O)cc3)nc2c(=O)[nH]1 (stereo partly shown) [γ-[^18F]fluoro-folic acid, γ-[^18F]fluorofolic acid]
[1]
  specific blockade of radiotracer uptake in folate receptor-positive KB tumors: 90.0%
[2]; control group vs blockade group
  uptake in folate receptor-positive tissues, such as tumor and kidney (FIG. 2): high specific uptake
[2]; ~2 MBq radiotracer, blockade group 200 μg natural folic acid 10 min prior, sacrificed 105 min post injection, kidneys
  specific blockade of radiotracer uptake in the kidneys: 86.0%
[3]
  specificity of uptake in PET: highly specific and blocked by natural folic acid
[4]
  uptake in liver cells (PET): radioactivity accumulation
  uptake in the kidney cortex (PET): high specific uptake
  uptake in the kidney medulla (PET): no uptake
